From PMC5324278, “Novel synthetic analogues of avian β-defensin-12: the role of charge, hydrophobicity, and disulfide bridges in biological functions” (BMC Microbiology, 2017)
Bridge positions count the residues as written; N and C are the ends. Ends that are not written are not given here.

Assays:
[1] = test system: avian and mammalian cell lines; conditions: previous findings; cited from earlier work
Protocol: Data on the highest peptide concentration (256 μg/ml) at various exposure times were presented in Additional file 1: Figure S1. The results were consistent with our previous findings that AvBD-6 and AvBD-12 were non-cytotoxic to avian and mammalian cell lines.

[2] = test system: S. Typhimurium (ATCC 14028); format: cell-based, Salmonella enteric serovar Typhimurium; conditions: triplicate; for MIC-ls S. Typhimurium (ATCC 14028): 100× diluted Muller Hinton II broth, 5 mM NaCl; for MIC-ls S. Typhimurium (ATCC 14028) / MIC S. Typhimurium (ATCC 14028): 5 × 10^5 CFU/ml, 37 °C, 24 h; for MIC S. Typhimurium (ATCC 14028): CLSI, standard Muller Hinton II broth; for MBC-ls S. Typhimurium (ATCC 14028): sub-culture of clear MIC-ls wells on LB agar, lowest concentration inhibiting more than 99% of growth
Protocol: (§1) The minimum inhibitory concentrations (MIC) of AvBDs were determined according to the guidelines of the Clinical and Laboratory Standards Institute (CLSI). The Muller Hinton II broth used in standard MIC assays contained 20–25 mg/L of calcium and 10–12.5 mg/L of magnesium. Modified MICs of AvBDs were also determined under a low-salt and low-nutrient condition by using 100× diluted Muller Hinton II broth containing 0.2 mg/L of calcium, 0.1 mg/L magnesium and 5 mM (292 mg/L) NaCl. MIC obtained under the low-salt and low-nutrient condition was referred to as MIC-ls. AvBD peptides were two-fold serially diluted (2 to 256 μg/ml) in a 96-well microtiter plate. An equal volume (μl) of bacterial suspension was added to each well of the plate. The final bacterial concentration in the wells was 5 × 10^5 CFU/ml. […] To complement MIC-ls assays, the minimum bactericidal concentrations (MBC) were evaluated by sub-culturing the contents of the first two clear wells obtained in the MIC-ls assay onto LB agar plates. All assays were conducted in triplicate. The lowest peptide concentration inhibiting more than 99% of bacterial growth was defined as MBC-ls. AvBD analogues were regarded as bactericidal if the MBC was no more than four times the MIC [29].

[3] = test system: CHO-K1 cells; experiment: MTT cell cytotoxicity assay; format: cell-based; conditions: 256 μg/ml; 4, 12, 24 and 48 hours; Student t-test treated vs untreated; n = 3; Figure S1
Protocol: (§2) Chicken macrophage cell lines MQ-NCSU and HD11 were maintained in RPMI-1640 media supplemented with 10% fetal bovine serum (FBS), 2% chicken serum, 100 U/ml penicillin and 100 μg/ml streptomycin (Sigma-Aldrich) at 37 °C in humidified air with 5% CO2. CHO-K1 cells were cultured in the same media without 2% chicken serum. For CCR2-transfected CHO-K1 cells, the medium was supplemented with 500 μg/ml G418 was added (Sigma-Aldrich). Murine immature dendritic cell line JAWSII (ATCC CRL-11904™) was cultured in Alpha minimum essential medium containing 4 mM L-glutamine, 1 mM sodium pyruvate, 5 ng/ml murine Granulocyte macrophage colony-stimulating factor (GM-CSF), 20% FBS, 100 U/ml penicillin and 100 μg/ml streptomycin at 37 °C in humidified air with 5% CO2. The cell cytotoxicity was determined using the MTT (3-(4, 5-dimethylthiazol-2-yl)-2, 5-diphenyltetrazolium bromide metabolic activity assay according to the manufacturer’s instruction (Thermo Fisher Scientific). Briefly, cells (5 × 10^3 cells/well) were seeded in 96-well tissue culture plates, incubated overnight and treated with AvBDs at concentrations of 4, 16, 64 and 256 μg/ml for 4, 12, 24 and 48 h at 37 °C. After treatment, 20 μl of 12 mM MTT solution was added to each well. The plate was incubated for 4 h and read at 540 nm. Viability was expressed as percentage of viable cells relative to the untreated control. The experiments were performed in triplicate.

[4] = test system: JAWSII cells; experiment: MTT cell cytotoxicity assay; format: cell-based, murine; conditions: 256 μg/ml; 4, 12, 24 and 48 hours; Student t-test treated vs untreated; n = 3; Figure S1
Protocol: as §2, with “The experiments were performed in triplicate.” left out

[5] = test system: P. aeruginosa (ATCC 27853); format: cell-based, Pseudomonas aeruginosa; conditions: triplicate; for MIC-ls P. aeruginosa (ATCC 27853): 100× diluted Muller Hinton II broth, 5 mM NaCl; for MIC-ls P. aeruginosa (ATCC 27853) / MIC P. aeruginosa (ATCC 27853): 5 × 10^5 CFU/ml, 37 °C, 24 h; for MIC P. aeruginosa (ATCC 27853): CLSI, standard Muller Hinton II broth; for MBC-ls P. aeruginosa (ATCC 27853): sub-culture of clear MIC-ls wells on LB agar, lowest concentration inhibiting more than 99% of growth
Protocol: as §1

[6] = test system: Staphylococcus aureus (ATCC 29213); format: cell-based; conditions: peptide 16 μg/ml; 2 h at 37 °C; 100-fold diluted Mueller Hinton II broth with 5 mM NaCl; colony count; n = 3
Protocol: (§3) Escherichia coli (ATCC 25922), Pseudomonas aeruginosa (ATCC 27853), Salmonella enteric serovar Typhimurium (ATCC 14028) and Staphylococcus aureus (ATCC 29213) were used to assess the antimicrobial activity of AvBD analogues. All bacterial strains were grown on Luria-Bertani (LB) agar plates or Trypticase Soy Agar with 5% Sheep Blood (TSA, Thermo Fisher Scientific) plates at 37 °C. Antimicrobial activity was determined by a colony counting assay. In brief, bacteria were resuspended in 100-fold diluted Mueller Hinton II broth with 5 mM NaCl (minimal growth medium) to obtain a final bacterial concentration of 2 × 10^5 CFU/ml. Twenty-five microliters of bacterial suspension and 25 μl of AvBD analogue solution were mixed in the wells of a 96-well polypropylene microtiter plate (Nunc™, Thermo Fisher Scientific). The final peptide concentrations were 2, 4, 8, 16, 32, 64 and 128 μg/ml. The minimal growth medium without AvBD peptide was included as a negative control. The bacterial-peptide mixtures were incubated at 37 °C for 2 h, ten-fold serially diluted and plated on LB agar plates. The numbers of bacteria colonies were enumerated after 16 h of incubation at 37 °C. Antimicrobial activity was expressed as percent of killing using the following formula: (CFUcontrol - CFUtreated) / CFUcontrol × 100%. To assess the resistance of AvBD analogues to sodium chloride (NaCl), antimicrobial assays were carried out in the presence of 5 mM, 50 mM, 100 mM or 150 mM NaCl. All assays were performed in triplicate.

[7] = test system: Salmonella enteric serovar Typhimurium (ATCC 14028); format: cell-based; conditions: peptide 16 μg/ml; 2 h at 37 °C; 100-fold diluted Mueller Hinton II broth with 5 mM NaCl; colony count; n = 3
Protocol: as §3

[8] = test system: Pseudomonas aeruginosa (ATCC 27853); format: cell-based; conditions: peptide 16 μg/ml; 2 h at 37 °C; 100-fold diluted Mueller Hinton II broth with 5 mM NaCl; colony count; n = 3
Protocol: as §3

[9] = test system: Escherichia coli (ATCC 25922); format: cell-based; conditions: peptide 16 μg/ml; 2 h at 37 °C; 100-fold diluted Mueller Hinton II broth with 5 mM NaCl; colony count; n = 3
Protocol: as §3

[10] = test system: HD11 cells; experiment: MTT cell cytotoxicity assay; format: cell-based, chicken; conditions: 256 μg/ml; 4, 12, 24 and 48 hours; Student t-test treated vs untreated; n = 3; Figure S1
Protocol: as §2

[11] = test system: MQ-NCSU cells; experiment: MTT cell cytotoxicity assay; format: cell-based, chicken; conditions: 256 μg/ml; 4, 12, 24 and 48 hours; Student t-test treated vs untreated; n = 3; Figure S1
Protocol: as §2

[12] = test system: E. coli (ATCC 25922); format: cell-based, Escherichia coli; conditions: triplicate; for MIC-ls E. coli (ATCC 25922): 100× diluted Muller Hinton II broth, 5 mM NaCl; for MIC-ls E. coli (ATCC 25922) / MIC E. coli (ATCC 25922): 5 × 10^5 CFU/ml, 37 °C, 24 h; for MIC E. coli (ATCC 25922): CLSI, standard Muller Hinton II broth; for MBC-ls E. coli (ATCC 25922): sub-culture of clear MIC-ls wells on LB agar, lowest concentration inhibiting more than 99% of growth
Protocol: as §1

[13] = test system: S. aureus (ATCC 29213); format: cell-based, Staphylococcus aureus; conditions: triplicate; for MIC-ls S. aureus (ATCC 29213): 100× diluted Muller Hinton II broth, 5 mM NaCl; for MIC-ls S. aureus (ATCC 29213) / MIC S. aureus (ATCC 29213): 5 × 10^5 CFU/ml, 37 °C, 24 h; for MIC S. aureus (ATCC 29213): CLSI, standard Muller Hinton II broth; for MBC-ls S. aureus (ATCC 29213): sub-culture of clear MIC-ls wells on LB agar, lowest concentration inhibiting more than 99% of growth
Protocol: as §1

Sequence | cytotoxicity to avian and mammalian cell lines [1] | MIC-ls S. Typhimurium (ATCC 14028) [2] | MIC S. Typhimurium (ATCC 14028) [2] | MBC-ls S. Typhimurium (ATCC 14028) [2] | metabolic activity (viability relative to untreated control), CHO-K1 [3] | metabolic activity (viability relative to untreated control), JAWSII [4] | MIC-ls P. aeruginosa (ATCC 27853) [5] | MIC P. aeruginosa (ATCC 27853) [5] | MBC-ls P. aeruginosa (ATCC 27853) [5] | metabolic activity (viability relative to untreated control), HD11 [10] | metabolic activity (viability relative to untreated control), MQ-NCSU [11] | MIC-ls E. coli (ATCC 25922) [12] | MIC E. coli (ATCC 25922) [12] | MBC-ls E. coli (ATCC 25922) [12] | MIC-ls S. aureus (ATCC 29213) [13] | MIC S. aureus (ATCC 29213) [13] | MBC-ls S. aureus (ATCC 29213) [13] | other results
GPDSCNHDRGLCRVGNCNPGEYLAKYCFEPVILCCKPLSPTPTKT (disulfide 5-34, 12-27, 17-35) [AvBD-12, avian β-defensin-12] | non-cytotoxic | 128 µg/mL | >256 µg/mL | 256 µg/mL | No significant difference was found | No significant difference was found | 128 µg/mL | >256 µg/mL | >256 µg/mL | No significant difference was found | No significant difference was found | 32 µg/mL | 256 µg/mL | 128 µg/mL | 256 µg/mL | >256 µg/mL | 256 µg/mL | percent of killing of S. aureus [6]: 52.9%; percent of killing of S. Typhimurium [7]: 47.3%; percent of killing of P. aeruginosa [8]: 35.5%; percent of killing of E. coli [9]: 74.4%
SPIHACRYQRGVCIPGPCRWPYYRVGSCGSGLKSCCVRNRWA (disulfide 6-35, 13-28, 18-36) [AvBD-6, avian β-defensin-6, reference compound] | non-cytotoxic | 16 µg/mL | >256 µg/mL | 64 µg/mL | No significant difference was found | No significant difference was found | 64 µg/mL | >256 µg/mL | 128 µg/mL | No significant difference was found | No significant difference was found | 4 µg/mL | 128 µg/mL | 16 µg/mL | 256 µg/mL | 256 µg/mL | 256 µg/mL | 
